ChEMBL document CHEMBL1147715, “Gatifloxacin derivatives: synthesis, antimycobacterial activities, and inhibition of Mycobacterium tuberculosis DNA gyrase” (Bioorg Med Chem Lett, 2006)
In brackets after ≈: the same amount, converted by molar mass.

Biological target: not listed separately
Assay: Inhibition of Mycobacterium tuberculosis DNA gyrase
Settings: not given

Row | Compound | IC50 [µg/mL]
1 | COc1c(N2CCN(Cn3c(O)c(/N=N/C(=N)S)c4ccccc43)C(C)C2)c(F)cc2c(=O)c(C(=O)O)cn(C3CC3)c12 (centres undefined) | 5 (≈ 8.23 µM)
2 | COc1c(N2CCN(Cn3c(O)c(/N=N/C(=O)c4ccncc4)c4ccccc43)C(C)C2)c(F)cc2c(=O)c(C(=O)O)cn(C3CC3)c12 (centres undefined) | 4 (≈ 6.12 µM)
3 | COc1c(N2CCN(Cn3c(O)c(/N=N/C(=N)S)c4cc(C)ccc43)C(C)C2)c(F)cc2c(=O)c(C(=O)O)cn(C3CC3)c12 (centres undefined) | 10 (≈ 16.1 µM)
4 | COc1c(N2CCN(CN3C(=O)/C(=N\c4ccc(S(=O)(=O)Nc5ncccn5)cc4)c4ccccc43)C(C)C2)c(F)cc2c(=O)c(C(=O)O)cn(C3CC3)c12 (centres undefined) | 8 (≈ 10.4 µM)
5 | COc1c(N2CCN(Cn3c(O)c(/N=N/C(N)=O)c4cc(F)ccc43)C(C)C2)c(F)cc2c(=O)c(C(=O)O)cn(C3CC3)c12 (centres undefined) | 4 (≈ 6.56 µM)
6 | COc1c(N2CCNC(C)C2)c(F)cc2c(=O)c(C(=O)O)cn(C3CC3)c12 (centres undefined) [GATIFLOXACIN] | 4 (≈ 10.7 µM)
7 | COc1c(N2CCN(Cn3c(O)c(/N=N/C(=O)c4ccncc4)c4cc(Cl)ccc43)C(C)C2)c(F)cc2c(=O)c(C(=O)O)cn(C3CC3)c12 (centres undefined) | 5 (≈ 7.27 µM)
8 | COc1c(N2CCN(Cn3c(O)c(/N=N/C(=N)S)c4cc(Cl)ccc43)C(C)C2)c(F)cc2c(=O)c(C(=O)O)cn(C3CC3)c12 (centres undefined) | 4 (≈ 6.23 µM)
9 | COc1c(N2CCN(CN3C(=O)/C(=N\c4ccc(S(=O)(=O)Nc5ncccn5)cc4)c4cc(F)ccc43)C(C)C2)c(F)cc2c(=O)c(C(=O)O)cn(C3CC3)c12 (centres undefined) | 6 (≈ 7.65 µM)
10 | COc1c(N2CCN(Cn3c(O)c(/N=N/C(=O)c4ccncc4)c4cc(C)ccc43)C(C)C2)c(F)cc2c(=O)c(C(=O)O)cn(C3CC3)c12 (centres undefined) | 5.5 (≈ 8.24 µM)
11 | COc1c(N2CCN(Cn3c(O)c(/N=N/C(N)=O)c4ccccc43)C(C)C2)c(F)cc2c(=O)c(C(=O)O)cn(C3CC3)c12 (centres undefined) | 3 (≈ 5.07 µM)
12 | COc1c(N2CCN(Cn3c(O)c(/N=N/C(N)=O)c4cc(C)ccc43)C(C)C2)c(F)cc2c(=O)c(C(=O)O)cn(C3CC3)c12 (centres undefined) | 4.5 (≈ 7.43 µM)
13 | COc1c(N2CCN(CN3C(=O)/C(=N\c4ccc(S(=O)(=O)Nc5ncccn5)cc4)c4cc(Cl)ccc43)C(C)C2)c(F)cc2c(=O)c(C(=O)O)cn(C3CC3)c12 (centres undefined) | 6 (≈ 7.49 µM)
14 | COc1c(N2CCN(Cn3c(O)c(/N=N/C(=N)S)c4cc(F)ccc43)C(C)C2)c(F)cc2c(=O)c(C(=O)O)cn(C3CC3)c12 (centres undefined) | 8 (≈ 12.8 µM)
15 | COc1c(N2CCN(CN3C(=O)/C(=N\c4ccc(S(=O)(=O)Nc5ncccn5)cc4)c4cc(C)ccc43)C(C)C2)c(F)cc2c(=O)c(C(=O)O)cn(C3CC3)c12 (centres undefined) | 3 (≈ 3.84 µM)
16 | COc1c(N2CCN(Cn3c(O)c(/N=N/C(N)=O)c4cc(Cl)ccc43)C(C)C2)c(F)cc2c(=O)c(C(=O)O)cn(C3CC3)c12 (centres undefined) | 4 (≈ 6.39 µM)

Tested on: Vero
Assay: Cytotoxicity against Vero cell line at 62.5 ug/ml after 72 hrs
Assay type: functional, cell-based
Settings: Chlorocebus sabaeus

Row | Compound | Activity
17 | COc1c(N2CCN(Cn3c(O)c(/N=N/C(=N)S)c4ccccc43)C(C)C2)c(F)cc2c(=O)c(C(=O)O)cn(C3CC3)c12 (centres undefined) | Not toxic
18 | COc1c(N2CCN(Cn3c(O)c(/N=N/C(=O)c4ccncc4)c4ccccc43)C(C)C2)c(F)cc2c(=O)c(C(=O)O)cn(C3CC3)c12 (centres undefined) | Not toxic
19 | COc1c(N2CCN(Cn3c(O)c(/N=N/C(=N)S)c4cc(C)ccc43)C(C)C2)c(F)cc2c(=O)c(C(=O)O)cn(C3CC3)c12 (centres undefined) | Not toxic
20 | COc1c(N2CCN(Cn3c(O)c(/N=N/C(=O)c4ccncc4)c4cc(F)ccc43)C(C)C2)c(F)cc2c(=O)c(C(=O)O)cn(C3CC3)c12 (centres undefined) | Not toxic
21 | COc1c(N2CCN(CN3C(=O)/C(=N\c4ccc(S(=O)(=O)Nc5ncccn5)cc4)c4ccccc43)C(C)C2)c(F)cc2c(=O)c(C(=O)O)cn(C3CC3)c12 (centres undefined) | Not toxic
22 | COc1c(N2CCN(Cn3c(O)c(/N=N/C(N)=O)c4cc(F)ccc43)C(C)C2)c(F)cc2c(=O)c(C(=O)O)cn(C3CC3)c12 (centres undefined) | Not toxic
23 | COc1c(N2CCN(Cn3c(O)c(/N=N/C(=O)c4ccncc4)c4cc(Cl)ccc43)C(C)C2)c(F)cc2c(=O)c(C(=O)O)cn(C3CC3)c12 (centres undefined) | Not toxic
24 | COc1c(N2CCN(Cn3c(O)c(/N=N/C(=N)S)c4cc(Cl)ccc43)C(C)C2)c(F)cc2c(=O)c(C(=O)O)cn(C3CC3)c12 (centres undefined) | Not toxic
25 | COc1c(N2CCN(CN3C(=O)/C(=N\c4ccc(S(=O)(=O)Nc5ncccn5)cc4)c4cc(F)ccc43)C(C)C2)c(F)cc2c(=O)c(C(=O)O)cn(C3CC3)c12 (centres undefined) | Not toxic
26 | COc1c(N2CCN(Cn3c(O)c(/N=N/C(=O)c4ccncc4)c4cc(C)ccc43)C(C)C2)c(F)cc2c(=O)c(C(=O)O)cn(C3CC3)c12 (centres undefined) | Not toxic
27 | COc1c(N2CCN(Cn3c(O)c(/N=N/C(N)=O)c4ccccc43)C(C)C2)c(F)cc2c(=O)c(C(=O)O)cn(C3CC3)c12 (centres undefined) | Not toxic
28 | COc1c(N2CCN(Cn3c(O)c(/N=N/C(N)=O)c4cc(C)ccc43)C(C)C2)c(F)cc2c(=O)c(C(=O)O)cn(C3CC3)c12 (centres undefined) | Not toxic
29 | COc1c(N2CCN(CN3C(=O)/C(=N\c4ccc(S(=O)(=O)Nc5ncccn5)cc4)c4cc(Cl)ccc43)C(C)C2)c(F)cc2c(=O)c(C(=O)O)cn(C3CC3)c12 (centres undefined) | Not toxic
30 | COc1c(N2CCN(Cn3c(O)c(/N=N/C(=N)S)c4cc(F)ccc43)C(C)C2)c(F)cc2c(=O)c(C(=O)O)cn(C3CC3)c12 (centres undefined) | Not toxic
31 | COc1c(N2CCN(CN3C(=O)/C(=N\c4ccc(S(=O)(=O)Nc5ncccn5)cc4)c4cc(C)ccc43)C(C)C2)c(F)cc2c(=O)c(C(=O)O)cn(C3CC3)c12 (centres undefined) | Not toxic
32 | COc1c(N2CCN(Cn3c(O)c(/N=N/C(N)=O)c4cc(Cl)ccc43)C(C)C2)c(F)cc2c(=O)c(C(=O)O)cn(C3CC3)c12 (centres undefined) | Not toxic

Tested on: Mycobacterium tuberculosis
Assay: Selectivity index (IC50/MIC)
Assay type: functional
Settings: not given

Row | Compound | Selectivity index
33 | COc1c(N2CCN(Cn3c(O)c(/N=N/C(N)=O)c4ccccc43)C(C)C2)c(F)cc2c(=O)c(C(=O)O)cn(C3CC3)c12 (centres undefined) | > 1250

Tested on: Mycobacterium tuberculosis
Assay: Activity against Mycobacterium tuberculosis ATCC 35801 in CD1 mouse at 50 mg/kg assessed as decrease in bacterial load in lung relative to control
Assay type: functional
Settings: not given

Row | Compound | Log10 cfu
34 | COc1c(N2CCNC(C)C2)c(F)cc2c(=O)c(C(=O)O)cn(C3CC3)c12 (centres undefined) [GATIFLOXACIN] | 5.82
35 | COc1c(N2CCN(Cn3c(O)c(/N=N/C(N)=O)c4ccccc43)C(C)C2)c(F)cc2c(=O)c(C(=O)O)cn(C3CC3)c12 (centres undefined) | 4.26

Tested on: Mycobacterium tuberculosis
Assay: Activity against Mycobacterium tuberculosis ATCC 35801 in CD1 mouse at 50 mg/kg assessed as decrease in bacterial load in spleen relative to control
Assay type: functional
Settings: not given

Row | Compound | Log10 cfu
36 | COc1c(N2CCNC(C)C2)c(F)cc2c(=O)c(C(=O)O)cn(C3CC3)c12 (centres undefined) [GATIFLOXACIN] | 6.14
37 | COc1c(N2CCN(Cn3c(O)c(/N=N/C(N)=O)c4ccccc43)C(C)C2)c(F)cc2c(=O)c(C(=O)O)cn(C3CC3)c12 (centres undefined) | 5.08

Tested on: Mycobacterium tuberculosis
Assay: Antimycobacterial activity against Mycobacterium tuberculosis H37Rv
Assay type: functional
Settings: not given

Row | Compound | MIC [µg/mL]
38 | COc1c(N2CCN(Cn3c(O)c(/N=N/C(=N)S)c4ccccc43)C(C)C2)c(F)cc2c(=O)c(C(=O)O)cn(C3CC3)c12 (centres undefined) | 0.2 (≈ 0.329 µM)
39 | COc1c(N2CCN(Cn3c(O)c(/N=N/C(=O)c4ccncc4)c4ccccc43)C(C)C2)c(F)cc2c(=O)c(C(=O)O)cn(C3CC3)c12 (centres undefined) | 0.78 (≈ 1.19 µM)
40 | COc1c(N2CCN(Cn3c(O)c(/N=N/C(=N)S)c4cc(C)ccc43)C(C)C2)c(F)cc2c(=O)c(C(=O)O)cn(C3CC3)c12 (centres undefined) | 0.78 (≈ 1.25 µM)
41 | COc1c(N2CCN(Cn3c(O)c(/N=N/C(=O)c4ccncc4)c4cc(F)ccc43)C(C)C2)c(F)cc2c(=O)c(C(=O)O)cn(C3CC3)c12 (centres undefined) | 0.78 (≈ 1.16 µM)
42 | COc1c(N2CCN(CN3C(=O)/C(=N\c4ccc(S(=O)(=O)Nc5ncccn5)cc4)c4ccccc43)C(C)C2)c(F)cc2c(=O)c(C(=O)O)cn(C3CC3)c12 (centres undefined) | 0.2 (≈ 0.261 µM)
43 | COc1c(N2CCN(Cn3c(O)c(/N=N/C(N)=O)c4cc(F)ccc43)C(C)C2)c(F)cc2c(=O)c(C(=O)O)cn(C3CC3)c12 (centres undefined) | 0.2 (≈ 0.328 µM)
44 | COc1c(N2CCNC(C)C2)c(F)cc2c(=O)c(C(=O)O)cn(C3CC3)c12 (centres undefined) [GATIFLOXACIN] | 0.2 (≈ 0.533 µM)
45 | COc1c(N2CCN(Cn3c(O)c(/N=N/C(=O)c4ccncc4)c4cc(Cl)ccc43)C(C)C2)c(F)cc2c(=O)c(C(=O)O)cn(C3CC3)c12 (centres undefined) | 0.39 (≈ 0.567 µM)
46 | COc1c(N2CCN(Cn3c(O)c(/N=N/C(=N)S)c4cc(Cl)ccc43)C(C)C2)c(F)cc2c(=O)c(C(=O)O)cn(C3CC3)c12 (centres undefined) | 0.39 (≈ 0.607 µM)
47 | COc1c(N2CCN(CN3C(=O)/C(=N\c4ccc(S(=O)(=O)Nc5ncccn5)cc4)c4cc(F)ccc43)C(C)C2)c(F)cc2c(=O)c(C(=O)O)cn(C3CC3)c12 (centres undefined) | 0.2 (≈ 0.255 µM)
48 | COc1c(N2CCN(Cn3c(O)c(/N=N/C(=O)c4ccncc4)c4cc(C)ccc43)C(C)C2)c(F)cc2c(=O)c(C(=O)O)cn(C3CC3)c12 (centres undefined) | 0.78 (≈ 1.17 µM)
49 | COc1c(N2CCN(Cn3c(O)c(/N=N/C(N)=O)c4ccccc43)C(C)C2)c(F)cc2c(=O)c(C(=O)O)cn(C3CC3)c12 (centres undefined) | 0.0125 (≈ 0.0211 µM)
50 | COc1c(N2CCN(Cn3c(O)c(/N=N/C(N)=O)c4cc(C)ccc43)C(C)C2)c(F)cc2c(=O)c(C(=O)O)cn(C3CC3)c12 (centres undefined) | 0.39 (≈ 0.644 µM)
51 | COc1c(N2CCN(CN3C(=O)/C(=N\c4ccc(S(=O)(=O)Nc5ncccn5)cc4)c4cc(Cl)ccc43)C(C)C2)c(F)cc2c(=O)c(C(=O)O)cn(C3CC3)c12 (centres undefined) | 0.1 (≈ 0.125 µM)
52 | COc1c(N2CCN(Cn3c(O)c(/N=N/C(=N)S)c4cc(F)ccc43)C(C)C2)c(F)cc2c(=O)c(C(=O)O)cn(C3CC3)c12 (centres undefined) | 0.1 (≈ 0.16 µM)
53 | COc1c(N2CCN(CN3C(=O)/C(=N\c4ccc(S(=O)(=O)Nc5ncccn5)cc4)c4cc(C)ccc43)C(C)C2)c(F)cc2c(=O)c(C(=O)O)cn(C3CC3)c12 (centres undefined) | 0.1 (≈ 0.128 µM)
54 | COc1c(N2CCN(Cn3c(O)c(/N=N/C(N)=O)c4cc(Cl)ccc43)C(C)C2)c(F)cc2c(=O)c(C(=O)O)cn(C3CC3)c12 (centres undefined) | 0.39 (≈ 0.623 µM)
